The values below come from patent US7566710B2, “Dual molecules containing a peroxide derivative, synthesis and therapeutic applications thereof” (Centre National de la Racherche Scientifique (C.N.R.S.), priority 2000, dated 2009).

Data set [1] deals with P. falciparum FcB1-Colombia (chloroquine resistant strain). Kind of data set: Anti-malarial activity on P. falciparum FcB1-Colombia strain, tritiated hypoxanthine incorporation. It is filed as cell-based, Plasmodium falciparum. On the procedure:
The P. falciparum strains are cultured continuously according to Trager and Jensen's method 5, with the following modifications 6: the parasites are maintained in human red blood cells (O±), diluted to 1% haematocrit in RPMI 1640 medium supplemented with 25 mM Hepes+30 mM NaHCO3 and complemented with 5% AB+ human serum. The parasite populations are synchronised over a 4 hour period by flotation with a gelatine solution, followed by lysis with 5% D-sorbitol 7,8. […]. The anti-malarial activity tests are performed using Desjardins' radioactive micromethod 11. The tests are performed in triplicate, in 96-well microplates, the readings being at 1% haematocrit and 0.5-1% parasitaemia. For each test, the parasites are incubated with decreasing concentrations of drug for either 32 hours and 72 hours (4 wells contain chloroquine diphosphate as a reference). The first dilution of the drug is performed at 10 mg/ml in dimethylsulphoxide and the following dilutions are made with RPMI 1640. The parasite growth is measured with the incorporation of tritiated hypoxanthine compared to incorporation in the absence of drug (taken to be 100%). 12 and the IC50 values are determined graphically by plotting the percentage of inhibition as a function of the drug concentration.

Data set [2] relates to P. falciparum FcM29-Cameroon (highly chloroquine resistant strain). Kind of data set: Anti-malarial activity on P. falciparum FcM29-Cameroon strain, tritiated hypoxanthine incorporation. It is filed as cell-based, Plasmodium falciparum. The protocol:
(§1) The parasite populations are synchronised over a 4 hour period by flotation with a gelatine solution, followed by lysis with 5% D-sorbitol 7,8. […] The anti-malarial activity tests are performed using Desjardins' radioactive micromethod 11. The tests are performed in triplicate, in 96-well microplates, the readings being at 1% haematocrit and 0.5-1% parasitaemia. For each test, the parasites are incubated with decreasing concentrations of drug for either 32 hours and 72 hours (4 wells contain chloroquine diphosphate as a reference). […] The parasite growth is measured with the incorporation of tritiated hypoxanthine compared to incorporation in the absence of drug (taken to be 100%). 12 and the IC50 values are determined graphically by plotting the percentage of inhibition as a function of the drug concentration.

Data set [3] relates to P. falciparum Nigerian (chloroquine susceptible strain). Kind of data set: Anti-malarial activity on P. falciparum Nigerian strain, tritiated hypoxanthine incorporation. Type of data set: cell-based, Plasmodium falciparum. The protocol:
as §1

Data set [4] relates to three Plasmodium falciparum strains. As to the kind of experiment: Anti-malarial activity, summary over the Nigerian, FcB1 and FcM29 strains. Type of data set: cell-based. Particulars: susceptible and resistant strains. On the procedure:
as §1

Another data set relates to P. falciparum in culture. As to the kind of experiment: In vitro activity on P. falciparum in culture. Particulars: Plasmodium falciparum, read-out: LC50. It is filed as cell-based.
For another data set, the system named is P. vinckei. As to the kind of experiment: 4 day test in mice infected with P. vinckei. It is filed as in vivo. Particulars: intraperitoneal route, for 2 months.
Another data set deals with E. coli GE864. Kind of data set: Mutagenicity, SOS response (DNA repair induction) in E. coli GE864. It is filed as cell-based. Particulars: E. coli GE864, 5, 10, 15 and 20 μM; control 3 μM mitomycin C.
Data set [5] in a line: Toxicity after administration to healthy mice. Particulars: 100 mg/kg/day oral route, three consecutive days.
For data set [6], the system named is human Plasmodium falciparum isolates. Kind of data set: Activity on human Plasmodium falciparum isolates. Type of data set: cell-based. The protocol: Trioxaquine-citrate 4, referred to as DU-1102, was tested on human Plasmodium falciparum isolates, some of which were chloroquine- and/or pyrimethamine-resistant.
Data set [7] concerns P. falciparum FcB1-Colombia (chloroquine resistant strain). Particulars: read-out: IC50 for chloroquine, FcB1-Columbia strain, literature refs 9,10; cited from earlier work.
In data set [8] the test system is P. falciparum FcM29-Cameroon (highly chloroquine resistant strain). The note with it: read-out: IC50 for chloroquine, literature refs 9,10; cited from earlier work.
Where [9] appears, read: FcB1-Colombia (CQR), 72 hrs, read-out: IC50.
[10] abbreviates: Nigerian (CQS), 32 hrs, read-out: IC50.
Setting [11] is: FcB1-Colombia (CQR), 32 hrs, read-out: IC50.
The mark [12] stands for this setting: Nigerian (CQS), 72 hrs, read-out: IC50.

The structures appear in SMILES notation. Several values for one entry are separate records, joined by “and”; a condition that tells them apart may be missing. Equal values may be shown once. Entries after “also recorded” stand apart in the source; their conditions may differ. Read-outs that look alike come from different tables or passages of the source. A value given as a limit tells only on which side of the number the result lay.

By IC50 is commonly meant the concentration that inhibits the measured activity by half. A word on the LC50: it is the concentration lethal to half of the exposed cells or organisms.

For the molecule `Clc1ccc2c(NCCNC3CCC4(CC3)OOC3(c5ccccc5)CC(c5ccccc5)=CC3O4)ccnc2c1` (mixture of isomers) [Trioxaquine 3], the half-inhibitory concentration (IC50) came to 9 nM in [1] (setting [9]); 18 nM in [2] (FcM29-Cameroon (CQR+), 72 hrs, read-out: IC50); 1 ng/mL in data set [3] (Nigerian (CQS), 32 hrs); 1.8 nM in [3] (setting [10]). In data set [4], the “activity compared with chloroquine and the two fragments” value was “significantly greater than the activity of not only chloroquine, but also of each of the two fragments”.
As for `Clc1ccc2c(NCCCCNC3CCC4(CC3)OOC3(c5ccccc5)CC(c5ccccc5)=CC3O4)ccnc2c1` (mixture of isomers) [Trioxaquine 9], the “activity compared with chloroquine and the two fragments” value in data set [4] is reported as “significantly greater than the activity of not only chloroquine, but also of each of the two fragments”.
Take `CCN(CC)CCCC(C)Nc1ccnc2cc(Cl)ccc12` (centres unmarked) [Chloroquine diphosphate]: the IC50 in [1] (Plasmodium falciparum, FCB1, 32 h) was 0.075 µg/mL; in data set [1] (Plasmodium falciparum, FCB1, 72 h) it was 0.06 µg/mL and 116 nM; in [2] (Plasmodium falciparum, 32 h), 0.1 µg/mL and 194 nM; in [2] (Plasmodium falciparum, 72 h) it was 0.08 µg/mL and 155 nM; in data set [3] (Plasmodium falciparum, 32 h), 0.045 µg/mL and 87 nM; in data set [3] (Plasmodium falciparum, 72 h), 0.01 µg/mL and 19 nM.
For `CC(C)C1=CC2OC3(CCC(NCCNc4ccnc5cc(Cl)ccc45)CC3)OOC2(C)CC1.O=C(O)CC(O)(CC(=O)O)C(=O)O.O=C(O)CC(O)(CC(=O)O)C(=O)O` (centres unmarked) [DU-1302], the LC50 in the data set with P. falciparum in culture was found to be 6 nM. Moreover, the re-emergence result in the data set on P. vinckei is on record as “no observable re-emergence”. The “mutagenicity, induction of DNA repair (SOS response)” value in the data set on E. coli GE864 is “Absence of mutagenicity”. The apparent toxicity entry in [5] is recorded as “does not show any apparent toxicity”.
`NCCNc1ccnc2cc(Cl)ccc12` [Quinoline-amine1, 7-chloro-4-[N-(2-aminoethyl)amino]-quinoline]: the concentration for half-maximal inhibition (IC50) in [1] (Plasmodium falciparum, FcB1-Colombia (CQR), 32 hrs, read-out: IC50) came to 0.035 µg/mL; in data set [1] (Plasmodium falciparum, FcB1-Colombia (CQR), 72 hrs, read-out: IC50), 0.02 µg/mL; in [3] (Plasmodium falciparum, Nigerian (CQS), 32 hrs, read-out: IC50), 33 ng/mL; in data set [3] (Plasmodium falciparum, Nigerian (CQS), 72 hrs, read-out: IC50), 7 ng/mL.
In the case of `O=C1CCC2(CC1)OOC1(c3ccccc3)CC(c3ccccc3)=CC1O2` (centres unmarked) [Trioxane-ketone 2], the IC50 in data set [1] (setting [11]) amounted to 113 nM; in data set [1] (setting [9]) it was 36 nM; in [3] (setting [10]) it was 149 nM; in [3] (setting [12]), 45 nM.
In the case of `Clc1ccc2c(NCCNC3CCC4(CC3)OOC3(c5ccccc5)CC(c5ccccc5)=CC3O4)ccnc2c1.O=C(O)CC(O)(CC(=O)O)C(=O)O.O=C(O)CC(O)(CC(=O)O)C(=O)O` (centres unmarked) [Trioxaquine 4], the IC50 in data set [1] (FcB1-Colombia (CQR), 32 hrs) is 0.035 µg/mL; in data set [1] (setting [11]), 37 nM; in data set [1] (FcB1-Colombia (CQR), 72 hrs), 0.02 µg/mL; in [1] (setting [9]), 21 nM; in data set [3] (Nigerian (CQS), 32 hrs) it was 33 ng/mL; in [3] (setting [10]), 35 nM. The IC50 came to 7 ng/mL in data set [3] (Nigerian (CQS), 72 hrs); 8 nM in data set [3] (setting [12]); 43 nM in data set [6] (read-out: IC50 geometric mean). Further, the “activity compared with chloroquine and the two fragments” value in data set [4] is “significantly greater than the activity of not only chloroquine, but also of each of the two fragments”. In data set [6], the IC50 geometric mean is 0.041 µg/mL. Also, the “relation of activity to susceptibility or resistance to other anti-malarial agents (chloroquine, pyrimethamine)” value in [6] (listed as DU-1102) was “independent of their susceptibility or their resistance; also recorded: no correlation”.
In the case of `CCN(CC)CCCC(C)Nc1ccnc2cc(Cl)ccc12` (centres unmarked) [chloroquine], the IC50 in [7] and in data set [8] was over 100 nM throughout.
